What all share (assay type): cell-based
In test [1] the test system is Streptococcus pneumoniae ATCC6303. The settings on record: rifS, THY Broth with 1 mg/mL catalase, 5% CO2, 37° C., read-out: Antimicrobial activity (MIC).
For test [2], the system named is Enterococcus faecalis ATCC29212. The settings on record: rifS, BHI Broth, 37° C., read-out: Antimicrobial activity (MIC).
Test [3] deals with Haemophilus influenzae ATCC10211. The settings on record: rifS, BHI Broth with NAD and hematin, 37° C., read-out: Antimicrobial activity (MIC).
For test [4], the system named is Staphylococcus aureus EN1252a gvrA^S84L grlA^S80F. Put plainly: microbe, parasite or virus in culture. The settings on record: read-out: Antimicrobial activity (MIC). The protocol:
(§1) Representative compounds were assayed for antimicrobial activity as follows: Minimum Inhibitory Concentrations (“MICs”) were determined by the microbroth dilution method as per NCCLS guidelines (National Committee for Clinical Laboratory Standards. 2000. Methods for dilution antimicrobial susceptibility tests for bacteria that grow aerobically, 5th ed. M7-A5. National Committee for Clinical Laboratory Standards, Wayne, Pa.), except that all growth incubations were conducted at 37° C. Bacterial cultures were tested in the following bacteriological media: S. aureus, S. epidermidis, and E. coli in Cation-Adjusted Mueller-Hinton Broth, S. pneumoniae in THY Broth supplemented with 1 mg/mL catalase under 5% CO2 atmosphere, S. pyogenes in THY Broth, E. faecalis in BHI Broth, H. influenzae in BHI Broth supplemented with 0.75 μL of 1 mg/mL NAD and 150 μL of 1 mg/ml hematin per 5 mL, and M. smegmatis in Middlebrook Broth plus ADC Enrichment.
S. aureus EN1252a gyrA^S84L grlA^S80F is a quinolone-resistant strain due to double mutations to the genes confer DNA gyrase and topoisomerase IV.

Test [5] has as its system Streptococcus pyogenes ATCC19615. The settings on record: rifS, THY Broth, 37° C., read-out: Antimicrobial activity (MIC).
Test [6] is described as follows: MIC, microbroth dilution, panel of rifampin-susceptible Gram-positive strains. The settings on record: across the five rifampin-susceptible Gram-positive strains. How it is done: as §1
S. aureus ATCC […], S. epidermidis ATCC 12228, S. pneumoniae ATCC6303, S. pyogenes ATCC 19615 and E. faecalis ATCC 29212 are rifampin-susceptible Gram-positive strains. […] The compounds of the current invention show further improved activity against these strains with MICs as low as 0.0005 μg/ml.
A general note: In broth dilution the organism is exposed to a series of concentrations in liquid medium.

[7] abbreviates: cipR, Cation-Adjusted Mueller-Hinton Broth, 37° C.

Converted amounts (≈) assume the structure as drawn. Like-named read-outs stand apart in the source and are kept apart here.

With `CO[C@H]1/C=C/O[C@@]2(C)Oc3c(C)c(O)c4c(=O)c(c5oc6cc(N(CCO)CCO)cc(O)c6nc-5c4c3/C2=N/O)NC(=O)/C(C)=C\C=C\[C@H](C)[C@H](O)[C@@H](C)[C@@H](O)[C@@H](C)[C@H](OC(C)=O)[C@@H]1C` [Example 18, 11-Deoxy-11-hydroxyimino-1′,4-didehydro-1-deoxy-1,4-dihydro-3′-hydroxy-5′-[bis-(2-hydroxy-ethyl)-amino]-1-oxo-rifamycin VIII], the MIC in test [1] fell in the range of 0.06 to 31 ng/mL (≈ 0.0653 to 33.7 nM); in test [2], 500 to 31200 ng/mL (≈ 544 to 34000 nM); in test [3], 125 to 8000 ng/mL (≈ 136 to 8710 nM); in test [4] (setting [7]) it was 0.5 to 125 ng/mL (≈ 0.544 to 136 nM).
The like results for `CO[C@H]1/C=C/O[C@@]2(C)Oc3c(C)c(O)c4c(=O)c(c5oc6cc(N7CCN(C)CC7)cc(C)c6nc-5c4c3/C2=N/O)NC(=O)/C(C)=C\C=C\[C@H](C)[C@H](O)[C@@H](C)[C@@H](O)[C@@H](C)[C@H](OC(C)=O)[C@@H]1C` [Example 19, 11-Deoxy-11-hydroxyimino-1′,4-didehydro-1-deoxy-1,4-dihydro-3′-methyl-5′-(4-methyl-1-piperazinyl)-1-oxo-rifamycin VIII] were, in that order, 0.06 to 31 ng/mL (≈ 0.0658 to 34 nM), 500 to 31200 ng/mL (≈ 548 to 34300 nM), 125 to 8000 ng/mL (≈ 137 to 8770 nM) and 0.5 to 125 ng/mL (≈ 0.548 to 137 nM).
The like results for `CO[C@H]1/C=C/O[C@@]2(C)Oc3c(C)c(O)c4c(=O)c(c5oc6cc(N7CCN(CC(C)C)CC7)ccc6nc-5c4c3/C2=N/O)NC(=O)/C(C)=C\C=C\[C@H](C)[C@H](O)[C@@H](C)[C@@H](O)[C@@H](C)[C@H](OC(C)=O)[C@@H]1C` [Example 20, 11-Deoxy-11-hydroxyimino-1′,4-didehydro-1-deoxy-1,4-dihydro-5′-(4-isobutyl-1-piperazinyl)-1-oxo-rifamycin VIII] were, in that order, 0.06 to 31 ng/mL (≈ 0.0638 to 33 nM), 500 to 31200 ng/mL (≈ 532 to 33200 nM), 125 to 8000 ng/mL (≈ 133 to 8510 nM) and 0.5 to 125 ng/mL (≈ 0.532 to 133 nM).
Turning to `CO[C@H]1/C=C/O[C@@]2(C)Oc3c(C)c(O)c4c(c3/C2=N/OCC(=O)O)C2=NC3(CCN(CC(C)C)CC3)NC2=C(NC(=O)/C(C)=C\C=C\[C@H](C)[C@H](O)[C@@H](C)[C@@H](O)[C@@H](C)[C@H](OC(C)=O)[C@@H]1C)C4=O` [Example 21, 11-Deoxy-11-(4-carboxymethoxyimino)-1′,4-didehydro-1-deoxy-1,4-dihydro-5′-(2-methylpropyl)-1-oxo-rifamycin XIV], the MIC in test [1] fell in the range of 0.06 to 31 ng/mL (≈ 0.0652 to 33.7 nM); in test [2], 500 to 31200 ng/mL (≈ 543 to 34000 nM); in test [3] it was 125 to 8000 ng/mL (≈ 136 to 8690 nM); in test [4] (setting [7]), 0.5 to 125 ng/mL (≈ 0.543 to 136 nM).
As to `COc1c(N2CCN(C(=O)CO/N=C3/c4c5c(C)c(O)c6c4C4=NC7(CCN(CC(C)C)CC7)NC4=C(NC(=O)/C(C)=C\C=C\[C@H](C)[C@H](O)[C@@H](C)[C@@H](O)[C@@H](C)[C@H](OC(C)=O)[C@H](C)[C@@H](OC)/C=C/O[C@@]3(C)O5)C6=O)C(C)C2)c(F)cc2c(=O)c(C(=O)O)cn(C3CC3)c12` (some centres unmarked) [Example 22, 11-Deoxy-11-{2-oxo-2-[2-methyl4-(3-carboxy-1-cyclopropl-2-methoxy-6-fluoro-4-oxo-1,4-dihydroquinolin-7-yl)piperazin-1-yl]ethoxyimino}-1′,4-didehydro-1-deoxy-1,4-dihydro-5′-(2-methylpropyl)-1-oxo-rifamycin XIV], the MIC in test [1] lay within 0.06 to 31 ng/mL (≈ 0.047 to 24.3 nM); in test [2], 500 to 31200 ng/mL (≈ 391 to 24500 nM); in test [3] it was 125 to 8000 ng/mL (≈ 97.9 to 6260 nM); in test [4] (setting [7]), 0.5 to 125 ng/mL (≈ 0.391 to 97.9 nM).
In the case of `CO[C@H]1/C=C/O[C@@]2(C)Oc3c(C)c(O)c4c(O)c(c(/C=N/N5CCN(C)CC5)c(O)c4c3C2=O)NC(=O)/C(C)=C\C=C\[C@H](C)[C@H](O)[C@@H](C)[C@@H](O)[C@@H](C)[C@H](OC(C)=O)[C@@H]1C` [rifampin, reference compound], the MIC was 61 ng/mL (≈ 74.1 nM) in test [1]; 13 ng/mL (≈ 15.8 nM) in test [5]; 13 to 1000 ng/mL (≈ 15.8 to 1220 nM) in test [6]; 1000 ng/mL (≈ 1220 nM) in test [2]; 240 ng/mL (≈ 292 nM) in test [3]; 4 ng/mL (≈ 4.86 nM) in test [4].

Source of the values: patent publication US7265107B2, “Rifamycin C-11 oxime cyclo derivatives effective against drug-resistant microbes” (Cumbre Pharmaceuticals Inc., priority 2004, dated 2007).
